Laboratory results taken from patent US5017570A, “Dibenzoxazepine compounds useful in the treatment of cerebral vasospasm or its sequela” (Chugai Seiyaku Kabushiki Kaisha, priority 1986, dated 1991).
Structures can show the parent of a compound that is named as a salt.

Columns and labels:
basilar artery = assay: Vasorelaxation of isolated basilar artery segments; format: cell-based, Beagles; details: 1 × 10^-5 M; for vasorelaxating action: in words
Protocol: Beagles of either sex weighing about 20 kg were anesthetized with i.v. administration of sodium […] (30 mg/kg) and were sacrificed by rapid exsanguination. After the brain was removed, the basilar artery was dissected out under magnification and was sectional in at 2- to 3-mm intervals. […] The segment was initially stretched at a tension of 400 mg for 1 hour with a force-displacement transducer (SB-1T, Nihon Kohden, Tokyo, Japan) during which time the buffer solution was changed several times. […] The total volume of agents never exceeded 25 μl or 5% of the chamber volume and experiments were done in the dark.

[1] = test system: regional cerebral blood flow (r-CBF); assay: r-CBF by hydrogen clearance method in unanesthetized and unrestrained cats; format: in vivo, Siamese cats
Excerpt: The present inventors therefore employed the hydrogen clearance method wherein unanesthetized and unrestrained cats, each having a platinum electrode embedded in the cerebral cortex at four points, i.e., post. sigmoid G., post. sylvian G., mid. ecto-sylvian G. and post. suprasylvian G., and in the deeper area of the brain at three points, i.e., hippocampus, amygdala and hypothalamus, were exposed to a predetermined amount of hydrogen gas in a chamber. Using this method, the effects of compound Nos. 1 and 2 of the present invention on the regional cerebral blood flow (r-CBF) were evaluated. At the same time, analyses of blood pressure, the pH of blood, the gaseous components of the blood, and blood sugar levels were conducted with catheters being embedded in the femoral artery and vein.
One month before the start of experiment, a platinum electrode was embedded in the cerebral cortex of Siamese cats (both female and male) at four points, i.e., post. sigmoid G., post sylvian G., mid. ecto-sylvian G. and post. suprasylvian G., and in the deeper area of the brain at three points, i.e., hippocampus, amygdala and hypothalamus, the cats being then exposed to a predetermined amount of hydrogen gas in a chamber in an unanesthetized and unrestrained state.
In order to evaluate the effects of compound Nos. 1 and 2 of the present invention on the regional cerebral blood flow (r-CBF), a predetermined amount of each test compound was administered either perorally (p.o.) in gelatin capsules or by intravenous injection (i.v.) In the latter case, 0.2 mg/kg or 1 mg/kg (body weight) of a selected compound of the present invention was dissolved in a quantity of physiological saline equivalent to 1 ml/kg (body weight) and the total amount of their solution was injected over a period of 10 minutes in a sustained manner through a cannula attached to a vein in the upper thigh; a control (vinpocetine) in an amount equivalent to 1 mg/kg or 5 mg/kg (body weight) was dissolved in a quantity of 10% ascorbic acid equivalent to […] (body weight) and the total amount of the solution was injected over a period of 10 minutes in a sustained manner through a cannula attached to a vein in the upper thigh.
In the r-CBF analysis, a clearance curve was obtained with a computer (Signal Processor 7T17, product of Nippon Electric Co., Ltd. and Sanei Co., Ltd.), transformed into semi-logarithmic values which were then processed by the initial slope method to calculate all the values of r-CBF. Only values having a coefficient of correlation of at least 0.9 for regression line were used as applicable data and the level of significance was determined by the paired-t test for absolute values, with the values before administration of a test compound being taken as a control. The level of significance for the control group was tested by time-series dispersion analysis.

[2] = Experiment for acute toxicity (oral LD50); details: mouse, in vivo, 5-week old male CD-1 (ICR) mice
Protocol: Nos. 1, 2, 3 and 4 of the present invention were administered orally to 5-week old male CD-1 (ICR) mice and the LD50 values (g/kg) were determined by a routine method.

[3] = Experiment for subacute toxicity (30 days oral); format: in vivo, male rats (F344/crj); details: deaths/animals
Protocol: Compounds No. 1, IV, VI and VII were administered orally to male rats (F344/crj) at doses of […] body weight daily for 30 days and body weight gain were measured.

[4] = test system: cyclic-GMP content in the thoracic aortae; assay: cyclic-GMP content in thoracic aorta rings by radioimmunoassay; format: cell-based, Sprague-Dawley male rats; details: 1×10^-6, 10^-5 or 10^-4 M, 37° C., 30 minutes
Protocol: Sprague-Dawley male rats were killed by decapitation, and their thoracic aortae were rapidly removed and immersed in ice-cold Krebs-Henseleit Ringer solution. The blood vessel was cut into rings with a length of about 3 mm and the weight of each wet tissue of the rings was measured. The rings of blood vessels were incubated at 37° C. for 30 minutes in portions of Krebs-Henseleit Ringer solution containing compound No. 1 (1×10^-6, 10^-5 or 10^-4 M) and vinpocetine (10^-4 M) under an atmosphere of 95% O2 - 5% CO2. Trichloroacetic acid (6%) was then added to the solution to stop the reaction and the cyclic-GMP content was determined by radioimunoassay method (YAMASA c-GMP Assay Kit).

[5] = minus: vasoconstriction, 0: no effect
[6] = i.v. over 10 minutes, 0.2 mg/kg

## CCC1=Nc2cc(C(=O)O)ccc2Oc2cc(OC)ccc21 [Compound No. 2]
Basilar artery
  vasorelaxating action: show vasorelaxating action
Basilar artery; [5]
  Vasorelaxation: 5.1 mg
[1]; p.o., 10 mg/kg
  Retention time: < 2 h
  Percent increase of r-CBF, 30 min.: 0.99%
  Percent increase of r-CBF, 60 min.: 9.1%
[1]; p.o., 20 mg/kg
  Retention time: > 4 h
  Percent increase of r-CBF, 30 min.: 13.8%
  Percent increase of r-CBF, 60 min.: 19.6%
[1]; p.o., 50 mg/kg
  Retention time: > 4 h
  Percent increase of r-CBF, 30 min.: 28.9%
  Percent increase of r-CBF, 60 min.: 22.4%
[2]
  LD50: 4200 to 5000 mg/kg

## CCOC(=O)c1ccc2c(c1)N=Cc1ccc(C)cc1O2 [No. II, reference compound]
Basilar artery; [5]
  Vasorelaxation: 0 mg

## CCC1=Nc2cc(C(=O)O)ccc2Oc2cc(O)ccc21 [No. I, reference compound]
Basilar artery; [5]
  Vasorelaxation: -20.5 mg

## CCC1=Nc2cc(C(=O)O)ccc2Oc2cc(OC)ccc21 [2 (Na salt), sodium salt of 3-methoxy-11-ethyldibenzo[b,f][1,4]oxazepin-8-carboxylic acid]
[1]; [6]
  Retention time: > 4 h
  Percent increase of r-CBF, 30 min.: 12.1%
  Percent increase of r-CBF, 60 min.: 21.0%
[1]; i.v. over 10 minutes, 1 mg/kg
  Retention time: > 4 h
  Percent increase of r-CBF, 30 min.: 8.1%
  Percent increase of r-CBF, 60 min.: 10.0%

## CCC1Nc2cc(C(=O)O)ccc2Oc2cc(OC)ccc21 (centres unmarked) [No. V, reference compound]
Basilar artery; [5]
  Vasorelaxation: 0 mg

## CCOC(=O)C1=C[C@]2(CC)CCCN3CCc4c(n1c1ccccc41)[C@@H]32 [Vinpocetine, vinpocetine, reference compound]
[1]; i.v. over 10 minutes, 1 mg/kg
  Percent increase of r-CBF, 30 min.: 1.0%
  Percent increase of r-CBF, 60 min.: < 2.3%
[1]; i.v. over 10 minutes, 5 mg/kg
  Retention time: < 1 h
  Percent increase of r-CBF, 30 min.: -0.9%
  Percent increase of r-CBF, 60 min.: 8.3%
[1]; p.o., 20 mg/kg
  Retention time: < 1 h
  Percent increase of r-CBF, 30 min.: 12.3%
  Percent increase of r-CBF, 60 min.: 5.2%

## CCOC(=O)c1ccc2c(c1)N=C(CC)c1ccc(OC)cc1O2 [No. IV, reference compound]
Basilar artery; [5]
  Vasorelaxation: 0 mg
[3]; 2000 mg/kg daily for 30 days
  death: 4/6

## COc1ccc2c(c1)Oc1ccc(C(=O)O)cc1N=C2C [1 (Na salt), sodium salt of 3-methoxy-11-methyldibenzo[b,f][1,4]oxazepin-8-carboxylic acid]
[1]; [6]
  Retention time: < 4 h
  Percent increase of r-CBF, 30 min.: 9.5%
  Percent increase of r-CBF, 60 min.: 13.6%
[1]; i.v. over 10 minutes, 1 mg/kg
  Retention time: > 4 h
  Percent increase of r-CBF, 30 min.: 13.3%
  Percent increase of r-CBF, 60 min.: 14.7%

## CCOC(=O)c1ccc2c(c1)N=C(c1ccccc1)c1ccc(OC)cc1O2 [No. III, reference compound]
Basilar artery; [5]
  Vasorelaxation: 0 mg

## CCC1=Nc2cc(C(=O)O)ccc2Oc2cc(C)ccc21 [No. VII]
[3]; 1000 mg/kg daily for 30 days
  death: 5/6

## COc1ccc2c(c1)Oc1ccc(C(=O)O)cc1N=C2C [Compound No. 1, 3-methoxy-11-methyldibenzo[b,f][1,4]oxazepin-8-carboxylic acid]
Basilar artery
  vasorelaxating action: show vasorelaxating action
Basilar artery; No. 2 = 1.00, minus: vasoconstriction, 0: no effect
  Relative Potency (vasorelaxation): 49.02
Basilar artery; [5]
  Vasorelaxation: 250.0 mg
[1]; p.o., 10 mg/kg
  Retention time: > 4 h
  Percent increase of r-CBF, 30 min.: 12.9%
  Percent increase of r-CBF, 60 min.: 14.4%
[1]; p.o., 20 mg/kg
  Retention time: > 4 h
  Percent increase of r-CBF, 30 min.: 11.8%
  Percent increase of r-CBF, 60 min.: 11.0%
[1]; p.o., 50 mg/kg
  Retention time: > 4 h
  Percent increase of r-CBF, 30 min.: 14.6%
  Percent increase of r-CBF, 60 min.: 10.0%
[4]
  cyclic-GMP content in the thoracic aortae: increased dose-dependently
[2]
  LD50: 3000 to 3500 mg/kg
